# In PMC11574021, “CEP192 localises mitotic Aurora-A activity by priming its interaction with TPX2” (The EMBO Journal, 2024):
# Experiments:
# Eg5 in RPE1 p53-/- cells = experiment: Immunofluorescence, Eg5 spindle signal intensity, RPE1 p53-/-; assay type: cell-based, Homo sapiens; settings: Aurora-A inhibitor 30 min (500 nM)
# Description: (§1) As noted in the figures, the following drugs were incubated with cells for 30 min at 37 °C: Aurora-B-i ZM447439 2 µM [10 mM], PLK1-I BI2536 1 µM [10 mM] and Aurora-A-i MLN8237 [5 mM] was used at 250 and 500 nM in U251 and RPE1 cells, respectively. Drugs were resuspended in DMSO to the stock concentrations indicated in square brackets. BI2536 (HY-50698), MLN8237 (HY-10971) and ZM447439 (HY-10128) were all purchased from MedChemExpress. For western blotting, a 20-min pre-treatment with proteasome inhibitor (20 µM MG-132, MerckMillipore, 47490 [20 mM]) was required prior to the addition of DMSO control or kinase inhibitors. This prevented mitotic exit as a consequence of checkpoint override following Aurora-A and Aurora-B inhibitor addition.
# (§2) For siRNA depletion, 1 × 10^5 cells were seeded in six-well plates and transfected as described above for 48 h prior to fixation. For all other experiments, 2.5 × 10^5 cells were seeded in six-well plates and grown for 24 h before fixation. All cells were grown on 12 mm diameter glass coverslips (VWR, 631–1577). […]
# (§3) For CEP192, LATS2-pS83, PCNT, PLK1 and γ-tubulin intensity, a 20-pixel diameter circle was centred over each centrosome and the intensity measured. […]
# [1] = molecular target: T1, phosphorylated Aurora-A CAKD (Homo sapiens, UniProt O14965, C290A/C393A); experiment: ADP-Glo kinase assay, kemptide substrate; assay type: biochemical; settings: ADP-Glo, phosphorylated Aurora-A CAKD, kemptide; in words
# T1 construct: 10 nM Aurora-A 122–403 C290A C393A phosphorylated protein; His (N, cleaved yes); made in house; host or cells: E. coli B834 (no lambda phosphatase)
# T1 sequence (O14965 122-403 C290A/C393A): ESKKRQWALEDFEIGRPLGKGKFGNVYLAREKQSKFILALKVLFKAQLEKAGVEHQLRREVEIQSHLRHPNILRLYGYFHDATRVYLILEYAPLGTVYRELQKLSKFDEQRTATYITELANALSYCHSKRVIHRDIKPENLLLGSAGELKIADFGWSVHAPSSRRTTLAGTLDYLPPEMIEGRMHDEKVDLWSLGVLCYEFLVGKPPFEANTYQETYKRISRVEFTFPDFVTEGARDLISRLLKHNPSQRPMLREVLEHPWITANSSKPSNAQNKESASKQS
# Outline: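 Reactions started with 10 μM ATP and 100 μM kemptide, 60 min at room temperature, then ADP-Glo luminescence read-out. Control-subtracted signals from three repeats averaged and fitted to sigmoidal curves for IC50 and EC50.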
# [2] = test system: PLK1 in RPE1 p53-/- cells; experiment: Immunofluorescence, PLK1 centrosomal signal intensity, RPE1 p53-/-; assay type: cell-based, Homo sapiens; settings: Aurora-A inhibitor 30 min
# Description: as §1, §2, §3
structure (smiles),measurement,setting,value
COc1cc(Nc2ncc3c(n2)-c2ccc(Cl)cc2C(c2c(F)cccc2OC)=NC3)ccc1C(=O)O [Alisertib],spindle levels of Eg5,Eg5 in RPE1 p53-/- cells,decrease in spindle levels of Eg5
same,effect on Aurora-A kinase activity,[1],fully inhibited activity
same,centrosomal Plk1 levels,[2],negative trend
